“And” between values parts separate entries of the source, which are not always exact repeats. Identical values can stand only once.

One experiment concerns tobacco plants.
Experiment: not given
As to conditions: 10 mM; cited from earlier work.
Regarding `NCCCC(=O)O` [GABA, γ-aminobutyric acid, reference compound], the “capacity to trigger the ARS” value is “totally inactive”.

With `CCC(N)C(=O)O` (stereo not drawn) [α-aminobutyric acid], the “capacity to trigger the ARS” value is on record as “less active”.

For `CC(N)CC(=O)O` (stereo not drawn) [β-aminobutyric acid], the “capacity to trigger the ARS” value was “active”.

The test system of the next experiment is Grape plants. As to the kind of experiment: Peroxydasic activity in treated grape plants. The class given is in vivo. The note with it: grape plants aged 3 weeks. The text has this: (§1) a) Measurement of the Peroxydasic Acttivity (Enzyme Endogenous to Plants)
(§2) Given the primordial role of the peroxydases in the resistance of plants, we have used the peroxydasic activity as a marker of the resistance following treatments by elicitors.
(§3) So as to measure the peroxydasic activities, leaves are crushed in a citrate-monohydrogeno-phosphate-disodium buffer. The extract is then placed in gaiacol and oxygenated water. A rapid reaction takes place: the gaiacol is transformed into tetragaiacol. The appearance of tetragaiacol in the medium permits us to calculate the peroxydasic activity.
(§4) Measurements are carried out in this same buffer by using the gaiacol as substrate. The results are expressed in ΔDO/mn/g of fresh material.
(§5) All the plants tested are young plants obtained from seed or by slipping. Pulverization is effected of the formulations obtained from oligopeptides. These formulations contain various wetting or penetrating agents capable of carrying the active material (oligopeptides) to the cells.
(§6) Grape plants aged 3 weeks have been treated with oligopeptides. The results obtained are assembled in Tables II, III (Sheet 1/2).
For the molecule H-Alan-Ala-OH [Product 13], the “Percent of peroxydasic activity relative to the most active product” value was found to be 59.49% and the Peroxydasic activity is listed as 136.6 ΔDO/mn/g of fresh material.

With H-Alan-Ala-ol [Product 6], the “Percent of peroxydasic activity relative to the most active product” value came out at 81.66% and the Peroxydasic activity is 187.5 ΔDO/mn/g of fresh material.

The subject of another experiment is Zucchini plants. Nature of the experiment: Peroxydasic activity in treated zucchini plants. It is filed as in vivo. As to conditions: zucchini plants aged 3 weeks; product 3.5 mg/L.
Excerpt: as §1, §2, §3, §4, §5
Zucchini plants aged 3 weeks have been treated with oligopeptides.
In the case of H-Ala2-Ala-ol [Product 8], the Peroxydasic activity was 94.6 ΔDO/min/aMF.

On to `CC(C)(N)C(=O)O` [Aib, α-aminoisobutyric acid, reference compound], for which the Peroxydasic activity is 53.1 ΔDO/min/aMF.

As for H-Alan-Ala-ol [Product 6], the Peroxydasic activity is 348 ΔDO/min/aMF.

`CC(N)CO` (centres unmarked) [Alininol, Alaninol, reference compound]: the Peroxydasic activity is given as 69.46 ΔDO/min/aMF.

`NCCCC(=O)O` [GABA, γ-aminobutyric acid, reference compound]: the Peroxydasic activity is 49.1 ΔDO/min/aMF.

For the molecule H-Ala5-Ala-ol [Product 11], the Peroxydasic activity was 102 ΔDO/min/aMF.

H-Ala1-Ala-ol [Product 7]: the Peroxydasic activity was 99.16 ΔDO/min/aMF.

Take H-Ala3-Ala-ol [Product 9]: the Peroxydasic activity was 112 ΔDO/min/aMF.

H-Ala6-Ala-OH [Product 12]: the Peroxydasic activity is 175 ΔDO/min/aMF.

In the case of H-Ala4-Ala-ol [Product 10], the Peroxydasic activity is on record as 194 ΔDO/min/aMF.

Consider `C[C@H](N)C(=O)O` [Alanine, reference compound], for which the Peroxydasic activity was 65.78 ΔDO/min/aMF.

Staying with this experiment, now noted: zucchini plants aged 3 weeks; product 3.5 mg/L; product 6 = 100%.
As to H-Ala2-Ala-ol [Product 8], the “Percent of peroxydasic activity relative to the product” value turned out to be 27.18%.

In the case of `CC(C)(N)C(=O)O` [Aib, α-aminoisobutyric acid, reference compound], the “Percent of peroxydasic activity relative to the product” value is 15.26%.

With H-Alan-Ala-ol [Product 6], the “Percent of peroxydasic activity relative to the product” value is given as 100%.

`CC(N)CO` (centres unmarked) [Alininol, Alaninol, reference compound]: the “Percent of peroxydasic activity relative to the product” value was found to be 19.96%.

For the molecule `NCCCC(=O)O` [GABA, γ-aminobutyric acid, reference compound], the “Percent of peroxydasic activity relative to the product” value is on record as 14.11%.

With H-Ala5-Ala-ol [Product 11], the “Percent of peroxydasic activity relative to the product” value stood at 29.31%.

In the case of H-Ala1-Ala-ol [Product 7], the “Percent of peroxydasic activity relative to the product” value stood at 28.49%.

Consider H-Ala3-Ala-ol [Product 9], for which the “Percent of peroxydasic activity relative to the product” value was 32.18%.

H-Ala6-Ala-OH [Product 12]: the “Percent of peroxydasic activity relative to the product” value was 50% and 50.28%.

Take H-Ala4-Ala-ol [Product 10]: the “Percent of peroxydasic activity relative to the product” value is 55.74%.

For `C[C@H](N)C(=O)O` [Alanine, reference compound], the “Percent of peroxydasic activity relative to the product” value amounted to 18.9%.

Still in this experiment, the particulars now being: zucchini plants; comparison in words.
Turning to H-Alan-Ala-ol [Product 6], the elicitor activity result is reported as “strongest elicitor activity”.

In the case of `CC(N)CO` (centres unmarked) [Alininol, Alaninol, reference compound], the elicitor activity result is listed as “most active of the residues tested”.

The test system of the next experiment is Grape plants. As to the kind of experiment: Chitinasic activity in treated grape plants. The class given is in vivo. The note with it: grape plants aged 3 weeks. As for the experimental part: b) Measurement of the Chitinasic Activity
So as to verify that the mechanisms of resistance are triggered, we have also measured an enzymatic activity appearing in the situations of resistance: the chitinasic activity (enzyme synthesis upon attack of the parasites, which degrades chitin, constituting the walls of the phytopathogenic mushrooms).
Colormetric reaction used: there is used an acetate buffer:
Solution of chitin+enzymatic extract+acetate buffer qsp 0.5 ml (blue at 2 mg/ml) crude 50 mM-(pH5) (100 microliters)
incubation for 30 minutes at 37° C., and under continuous agitation.
the reaction is stopped by addition of a solution of HCL 1N
colormetric or spectrophotometric measurement at 550 nm
The chitinasic activity is expressed as ΔDO/mn/g of fresh material.
as §5, §6
For the molecule H-Alan-Ala-OH [Product 13], the Chitinasic activity is given as 65.3 ΔDO/mn/g of fresh material and the “Percent of chitinasic activity relative to the most active product” value is 100%.

Turning to H-Alan-Ala-ol [Product 6], the Chitinasic activity is 45.4 ΔDO/mn/g of fresh material and the “Percent of chitinasic activity relative to the most active product” value turned out to be 80.94%.

Source of the values: patent publication US20060148710A1, “Oligopeptides, composition and use thereof as elicitors of the natural defences of plants” (DE Sangosse SA, priority 2003, published 2006).
